Key:
Experiment in all cases: relative viability (nuclei count vs DMSO), 5 days (fraction); higher = more cells survive
Vorinostat + Crizotinib = compound: O=C(CCCCCCC(=O)Nc1ccccc1)NO [Vorinostat] + C[C@@H](Oc1cc(-c2cnn(C3CCNCC3)c2)cnc1N)c1c(Cl)ccc(F)c1Cl [Crizotinib] (partner 1 µM)
In short: (§1)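 After 5 days of treatment, lung cancer cells in 1536-well plates were fixed and stained in a single step (final 0.05% Triton X-100, 1% formaldehyde, 1 ug/ml Hoechst) and their nuclei counted on 4× images. Treatment had been applied by pin tool the day after seeding as one drug alone or as a fixed anchor-drug dose with five library-drug doses (not always all listed) in √10 steps. Relative viability is the nuclei count of treated wells divided by that of vehicle wells, and values are medians of duplicate plates.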

Vorinostat + Luminespib = compound: O=C(CCCCCCC(=O)Nc1ccccc1)NO [Vorinostat] + CCNC(=O)c1noc(-c2cc(C(C)C)c(O)cc2O)c1-c1ccc(CN2CCOCC2)cc1 [Luminespib] (partner 0.01 µM)
In short: as §1

Vorinostat + Olaparib = compound: O=C(CCCCCCC(=O)Nc1ccccc1)NO [Vorinostat] + O=C(c1cc(Cc2n[nH]c(=O)c3ccccc23)ccc1F)N1CCN(C(=O)C2CC2)CC1 [Olaparib] (partner 8 µM)
In short: as §1

Vorinostat + Pemetrexed = compound: O=C(CCCCCCC(=O)Nc1ccccc1)NO [Vorinostat] + Nc1nc2[nH]cc(CCc3ccc(C(=O)N[C@@H](CCC(=O)O)C(=O)O)cc3)c2c(=O)[nH]1 [Pemetrexed] (partner 0.2 µM)
In short: as §1

Vorinostat + Palbociclib = compound: O=C(CCCCCCC(=O)Nc1ccccc1)NO [Vorinostat] + CC(=O)c1c(C)c2cnc(Nc3ccc(N4CCNCC4)cn3)nc2n(C2CCCC2)c1=O [Palbociclib] (partner 0.5 µM)
In short: as §1

Cell Line: NCI-H2347
- relative viability (Vorinostat + Crizotinib; first compound 0.253 µM): 0.793
- relative viability (Vorinostat + Crizotinib; first compound 0.8 µM): 0.715
- relative viability (Vorinostat + Crizotinib; first compound 2.53 µM): 0.379
- relative viability (Vorinostat + Crizotinib; first compound 8 µM): 0.283
- relative viability (Vorinostat + Luminespib; first compound 0.253 µM): 0.608
- relative viability (Vorinostat + Luminespib; first compound 0.8 µM): 0.333
- relative viability (Vorinostat + Luminespib; first compound 2.53 µM): 0.221
- relative viability (Vorinostat + Luminespib; first compound 8 µM): 0.192
- relative viability (Vorinostat + Olaparib; first compound 0.253 µM): 0.575
- relative viability (Vorinostat + Olaparib; first compound 0.8 µM): 0.633
- relative viability (Vorinostat + Olaparib; first compound 2.53 µM): 0.401
- relative viability (Vorinostat + Olaparib; first compound 8 µM): 0.241
- relative viability (Vorinostat + Pemetrexed; first compound 0.253 µM): 0.427
- relative viability (Vorinostat + Pemetrexed; first compound 0.8 µM): 0.41
- relative viability (Vorinostat + Pemetrexed; first compound 2.53 µM): 0.416
- relative viability (Vorinostat + Pemetrexed; first compound 8 µM): 0.299
- relative viability (Vorinostat + Palbociclib; first compound 0.253 µM): 0.405
- relative viability (Vorinostat + Palbociclib; first compound 0.8 µM): 0.371
- relative viability (Vorinostat + Palbociclib; first compound 2.53 µM): 0.362
- relative viability (Vorinostat + Palbociclib; first compound 8 µM): 0.242

Cell Line: NCI-H1975
- relative viability (Vorinostat + Crizotinib; first compound 0.253 µM): 1.04
- relative viability (Vorinostat + Crizotinib; first compound 0.8 µM): 0.679
- relative viability (Vorinostat + Crizotinib; first compound 2.53 µM): 0.174
- relative viability (Vorinostat + Crizotinib; first compound 8 µM): 0.134
- relative viability (Vorinostat + Luminespib; first compound 0.253 µM): 0.286
- relative viability (Vorinostat + Luminespib; first compound 0.8 µM): 0.202
- relative viability (Vorinostat + Luminespib; first compound 2.53 µM): 0.147
- relative viability (Vorinostat + Luminespib; first compound 8 µM): 0.16
- relative viability (Vorinostat + Olaparib; first compound 0.253 µM): 0.9
- relative viability (Vorinostat + Olaparib; first compound 0.8 µM): 0.593
- relative viability (Vorinostat + Olaparib; first compound 2.53 µM): 0.249
- relative viability (Vorinostat + Olaparib; first compound 8 µM): 0.125
- relative viability (Vorinostat + Pemetrexed; first compound 0.253 µM): 0.323
- relative viability (Vorinostat + Pemetrexed; first compound 0.8 µM): 0.243
- relative viability (Vorinostat + Pemetrexed; first compound 2.53 µM): 0.183
- relative viability (Vorinostat + Pemetrexed; first compound 8 µM): 0.133
- relative viability (Vorinostat + Palbociclib; first compound 0.253 µM): 0.569
- relative viability (Vorinostat + Palbociclib; first compound 0.8 µM): 0.461
- relative viability (Vorinostat + Palbociclib; first compound 2.53 µM): 0.164
- relative viability (Vorinostat + Palbociclib; first compound 8 µM): 0.104

Cell Line: PC-3 [JPC-3]
- relative viability (Vorinostat + Crizotinib; first compound 0.253 µM): 0.955
- relative viability (Vorinostat + Crizotinib; first compound 0.8 µM): 0.97
- relative viability (Vorinostat + Crizotinib; first compound 2.53 µM): 0.41
- relative viability (Vorinostat + Crizotinib; first compound 8 µM): 0.228
- relative viability (Vorinostat + Luminespib; first compound 0.253 µM): 0.746
- relative viability (Vorinostat + Luminespib; first compound 0.8 µM): 0.801
- relative viability (Vorinostat + Luminespib; first compound 2.53 µM): 0.282
- relative viability (Vorinostat + Luminespib; first compound 8 µM): 0.261
- relative viability (Vorinostat + Olaparib; first compound 0.253 µM): 1.13
- relative viability (Vorinostat + Olaparib; first compound 0.8 µM): 1.05
- relative viability (Vorinostat + Olaparib; first compound 2.53 µM): 0.379
- relative viability (Vorinostat + Olaparib; first compound 8 µM): 0.326
- relative viability (Vorinostat + Pemetrexed; first compound 0.253 µM): 1.1
- relative viability (Vorinostat + Pemetrexed; first compound 0.8 µM): 0.866
- relative viability (Vorinostat + Pemetrexed; first compound 2.53 µM): 0.285
- relative viability (Vorinostat + Pemetrexed; first compound 8 µM): 0.281
- relative viability (Vorinostat + Palbociclib; first compound 0.253 µM): 0.521
- relative viability (Vorinostat + Palbociclib; first compound 0.8 µM): 0.506
- relative viability (Vorinostat + Palbociclib; first compound 2.53 µM): 0.45
- relative viability (Vorinostat + Palbociclib; first compound 8 µM): 0.378

Cell Line: EPLC-272H
- relative viability (Vorinostat + Crizotinib; first compound 0.253 µM): 0.875
- relative viability (Vorinostat + Crizotinib; first compound 0.8 µM): 0.774
- relative viability (Vorinostat + Crizotinib; first compound 2.53 µM): 0.346
- relative viability (Vorinostat + Crizotinib; first compound 8 µM): 0.178
- relative viability (Vorinostat + Luminespib; first compound 0.253 µM): 0.497
- relative viability (Vorinostat + Luminespib; first compound 0.8 µM): 0.195
- relative viability (Vorinostat + Luminespib; first compound 2.53 µM): 0.273
- relative viability (Vorinostat + Luminespib; first compound 8 µM): 0.158
- relative viability (Vorinostat + Olaparib; first compound 0.253 µM): 0.827
- relative viability (Vorinostat + Olaparib; first compound 0.8 µM): 0.565
- relative viability (Vorinostat + Olaparib; first compound 2.53 µM): 0.2
- relative viability (Vorinostat + Olaparib; first compound 8 µM): 0.13
- relative viability (Vorinostat + Pemetrexed; first compound 0.253 µM): 0.367
- relative viability (Vorinostat + Pemetrexed; first compound 0.8 µM): 0.381
- relative viability (Vorinostat + Pemetrexed; first compound 2.53 µM): 0.212
- relative viability (Vorinostat + Pemetrexed; first compound 8 µM): 0.159
- relative viability (Vorinostat + Palbociclib; first compound 0.253 µM): 0.289
- relative viability (Vorinostat + Palbociclib; first compound 0.8 µM): 0.294
- relative viability (Vorinostat + Palbociclib; first compound 2.53 µM): 0.217
- relative viability (Vorinostat + Palbociclib; first compound 8 µM): 0.171

Cell Line: NCI-H647
- relative viability (Vorinostat + Crizotinib; first compound 0.253 µM): 1.15
- relative viability (Vorinostat + Crizotinib; first compound 0.8 µM): 0.591
- relative viability (Vorinostat + Crizotinib; first compound 2.53 µM): 0.178
- relative viability (Vorinostat + Crizotinib; first compound 8 µM): 0.0502
- relative viability (Vorinostat + Luminespib; first compound 0.253 µM): 0.0999
- relative viability (Vorinostat + Luminespib; first compound 0.8 µM): 0.146
- relative viability (Vorinostat + Luminespib; first compound 2.53 µM): 0.222
- relative viability (Vorinostat + Luminespib; first compound 8 µM): 0.0619
- relative viability (Vorinostat + Olaparib; first compound 0.253 µM): 0.694
- relative viability (Vorinostat + Olaparib; first compound 0.8 µM): 0.201
- relative viability (Vorinostat + Olaparib; first compound 2.53 µM): 0.0618
- relative viability (Vorinostat + Olaparib; first compound 8 µM): 0.0259
- relative viability (Vorinostat + Pemetrexed; first compound 0.253 µM): 0.226
- relative viability (Vorinostat + Pemetrexed; first compound 0.8 µM): 0.138
- relative viability (Vorinostat + Pemetrexed; first compound 2.53 µM): 0.0722
- relative viability (Vorinostat + Pemetrexed; first compound 8 µM): 0.0562
- relative viability (Vorinostat + Palbociclib; first compound 0.253 µM): 0.453
- relative viability (Vorinostat + Palbociclib; first compound 0.8 µM): 0.158
- relative viability (Vorinostat + Palbociclib; first compound 2.53 µM): 0.0854
- relative viability (Vorinostat + Palbociclib; first compound 8 µM): 0.0249

Cell Line: NCI-H661
- relative viability (Vorinostat + Crizotinib; first compound 0.253 µM): 1.01
- relative viability (Vorinostat + Crizotinib; first compound 0.8 µM): 1.03
- relative viability (Vorinostat + Crizotinib; first compound 2.53 µM): 0.483
- relative viability (Vorinostat + Crizotinib; first compound 8 µM): 0.327
- relative viability (Vorinostat + Luminespib; first compound 0.253 µM): 0.905
- relative viability (Vorinostat + Luminespib; first compound 0.8 µM): 0.725
- relative viability (Vorinostat + Luminespib; first compound 2.53 µM): 0.34
- relative viability (Vorinostat + Luminespib; first compound 8 µM): 0.298
- relative viability (Vorinostat + Olaparib; first compound 0.253 µM): 0.767
- relative viability (Vorinostat + Olaparib; first compound 0.8 µM): 0.569
- relative viability (Vorinostat + Olaparib; first compound 2.53 µM): 0.392
- relative viability (Vorinostat + Olaparib; first compound 8 µM): 0.323
- relative viability (Vorinostat + Pemetrexed; first compound 0.253 µM): 0.926
- relative viability (Vorinostat + Pemetrexed; first compound 0.8 µM): 0.78
- relative viability (Vorinostat + Pemetrexed; first compound 2.53 µM): 0.455
- relative viability (Vorinostat + Pemetrexed; first compound 8 µM): 0.355
- relative viability (Vorinostat + Palbociclib; first compound 0.253 µM): 0.437
- relative viability (Vorinostat + Palbociclib; first compound 0.8 µM): 0.377
- relative viability (Vorinostat + Palbociclib; first compound 2.53 µM): 0.286
- relative viability (Vorinostat + Palbociclib; first compound 8 µM): 0.32
